One experiment concerns RAW264.7. The experiment can be described thus: Anti-inflammatory activity in murine RAW264.7 cells assessed as inhibition of LPS-induced NO production at 50 uM relative to control. The format is functional. The note with it: Mus musculus.
For the compound `C=CCc1cc(O)c2c(c1)-c1cc(O)c(O)cc1C(C=C)O2` (centres undefined), the inhibition (usually the percentage by which the read-out fell short of the control) at 50 µM was less than 50%.

Regarding `C=CCc1cc(O)c(O)cc1-c1cc(OC)c(O)cc1CC=C`, the inhibition at 50 µM is less than 50%. Same read-out and setting: next, `C=CCc1cc(O)c2oc3cc(O)c(O)c(CC=C)c3c2c1`: less than 50%. Regarding `COc1cc(/C=C/CO)ccc1O` [CONIFERYL ALCOHOL], the inhibition at 50 µM is less than 50%. As for `COc1cc(/C=C/C=O)ccc1O` [CONIFERYL ALDEHYDE], the inhibition at 50 µM was less than 50%. In the case of `C=CCc1ccc(O)c(OC)c1` [EUGENOL], the inhibition at 50 µM was less than 50%. Still for that read-out and setting: to `COC(=O)/C=C/c1ccc(O)cc1` [METHYL P-HYDROXYCINNAMATE] belongs less than 50%. Consider `COc1cc(C=O)ccc1O` [VANILLIN], for which the inhibition at 50 µM was less than 50%.

The test system of the next experiment is RAW264.7. The experiment can be described thus: Anti-inflammatory activity in murine RAW264.7 cells assessed as inhibition of LPS-induced NO production. It is filed as functional, cell-based. The note with it: Mus musculus.
`C=CCc1cc(O)c(OC)cc1C/C=C/c1ccc(OC)c(O)c1`: the IC50 (usually the midpoint of a concentration-inhibition curve) stood at 45.9 µM. The same measure, in the same setting: to `C=CCc1ccc2c(c1)O[C@@H](c1ccc(O)c(O)c1)[C@H](Cc1cc(O)c(O)cc1CC=C)O2` belongs 9.87 µM; to `C=CCc1cc(O)c(O)cc1-c1cc(O)c(O)cc1CC=C`, 40.5 µM; to `C=CCc1ccc(O)c(O)c1` [HYDROXYCHAVICOL], 4.8 µM. As to `CNC(=N)NCCC[C@H](N)C(=O)O` [TILARGININE], the IC50 is 33.8 µM. With `O=C/C=C/c1ccc(O)cc1` [p-HYDROXYCINNAMALDEHYDE], the IC50 came to 26.4 µM.

Values taken from ChEMBL document CHEMBL4673299, “A new sesquineolignan and four new neolignans isolated from the leaves of Piper betle, a traditional medicinal plant in Myanmar” (Bioorg Med Chem Lett, 2021).
